Measurements from US6552038B1, “Anticoagulant agents” (Eli Lilly and Company, priority 1996, dated 2003).
Structures can show the parent of a compound that is named as a salt.

Legend:
human or animal plasma = assay: Anticoagulation determination: thrombin time (TT) in plasma; details: compound added to plasma; linear extrapolation to doubling of thrombin time
Experimental: Dog plasma and rat plasma are obtained from conscious mixed-breed hounds (either sex, hazelton-LRE, Kalamazoo, Mich., U.S.A.) or from anesthetized male Sprague-Dawley rats (Harlan Sprague-Dawley, Inc., Indianapolis, Ind., U.S.A.) by venipuncture into 3.8 percent citrate. Fibrinogen is prepared from in-date ACD human blood as the fraction I-2 according to previous procedures and specifications. Smith, Biochem. J., 185, 1-11 (1980); and Smith, et al., Biochemistry, 11, 2958-2967 (1972). Human fibrinogen is also purchased as 98 percent pure/plasmin free from American Diagnostica, Greenwich, Conn. Coagulation reagents ACTIN, Thromboplastin, and Human plasma are from Baxter Healthcare Corp., Dade Division, Miami, Fla. Bovine thrombin from Parke-Davis (Detroit, Mich.) is used for coagulation assays in plasma.
Coagulation assay procedures are as previously described. Smith, et al., Thrombosis Research, 50, 163-174 (1988). A CoAScreener coagulation instrument (American LABor, Inc.) is used for all coagulation assay measurements. The thrombin time (TT) is measured by adding 0.05 ml saline and 0.05 ml thrombin (10 NIH units/ml) to 0.05 ml test plasma. The activated partial thromboplastin time (APTT) is measured by incubation of 0.05 ml test plasma with 0.05 ml Actin reagent for 120 seconds followed by 0.05 ml CaCl2 (0.02 M). The prothrombin time (PT) is measured by adding 0.05 ml saline and 0.05 ml Thromboplastin-C reagent to 0.05 ml test plasma. The compounds of formula I are added to human or animal plasma over a wide range of concentrations to determine prolongation effects on the TT, APTT and PT assays. Linear extrapolations are performed to estimate the concentrations required to double the clotting time for each assay. Each of the particularly preferred examples of the invention listed above was determined to have a TT value of less than 50 ng/mL. For example, the respective values (in ng/mL) for TT were 6, 6 and 23 for the compounds of Examples 1, 3 and 5.

human thrombin = human thrombin (Homo sapiens, UniProt P00734); assay: Inhibition of the amidase activity of thrombin (chromogenic substrate), Kass; format: biochemical; details: purified human thrombin, N-benzoyl-L-Phe-L-Val-L-Arg-p-nitroanilide, pH 7.4; mean value
Experimental: The assay is carried out by mixing 50 μl buffer (0.03M Tris, 0.15M NaCl, pH 7.4) with 25 μl of human thrombin solution (purified human thrombin, Enzyme Research Laboratories, South Bend, Ind., at 8 NIH units/ml) and 25 μl of test compound in a solvent (50% aqueous methanol (v:v)). Then 150 μl of an aqueous solution of the chromogenic substate (at 0.25 mg/ml) are added and the rates of hydrolysis of the substrate are measured by monitoring the reactions at 405 nm for the release of p-nitroaniline. Standard curves are constructed by plotting free thrombin concentration against hydrolysis rate. The hydrolysis rates observed with test compounds are then converted to “free thrombin” values in the respective assays by use of the standard curves. The bound thrombin (bound to test compound) is calculated by subtracting the amount of free thrombin observed in each assay from the known initial amount of thrombin used in the assay. The amount of free inhibitor in each assay is calculated by subtracting the number of moles of bound thrombin from the number of moles of added inhibitor (test compound). […]
Kass is calculated for a range of concentrations of test compounds and the mean value reported in units of liter per mole. […] For example, each of the particularly preferred examples of the invention listed above was determined to have a Kass of at least 100×10^6 L/mole.

[1] = Octanol/water distribution coefficient logD at pH 7.4; format: physicochemical

SMILES	TT value (concentration required to double the clotting time, thrombin time) (human or animal plasma)	Kass (hypothetical equilibrium constant for the reaction between thrombin and the test compound) (human thrombin)	logD(7.4) [1]
N=C(N)c1ccc(CNC(=O)[C@@H]2CCCN2C(=O)[C@H](N)CC2CCCCC2)cc1O [Example 1, D-cyclohexylalanyl-N-[[4-(aminoiminomethyl)-3-hydroxyphenyl]methyl]-L-prolinamide dihydrochloride]	6 ng/mL	–	–
Cl.N=C(N)c1ccc(CNC(=O)[C@@H]2CCCN2C(=O)[C@@H](CC2CCCCC2)NCC(=O)O)cc1O [Example 3, N-carboxymethyl-D-cyclohexylalanyl-N-[[4-(aminoiminomethyl)-3-hydroxyphenyl]methyl]-L-prolinamide hydrochloride]	6 ng/mL	1,200×10^6 L/mole	0.55
CCS(=O)(=O)N[C@H](CC1CCCCC1)C(=O)N1CCC[C@H]1C(=O)NCc1ccc(C(=N)N)c(O)c1 [Example 5, N-ethylsulfonyl-D-cyclohexylalanyl-N-[[4-(aminoiminomethyl)-3-hydroxyphenyl]methyl]-L-prolinamide hydrochloride]	23 ng/mL	–	–
